What was measured:
autoimmune diabetes = conditions: treatment of recipient NOD.scid mice before transfer of BDC-2.5 clone; cited from earlier work
[1] = test system: isolated cultured human islets; experiment: RNA-Seq gene expression in isolated cultured human islets with or without Raloxifene; assay type: cell-based; conditions: for % decrease in gene expression: 10 nM Raloxifene vs control
Experimental: FIG. 1: Inhibition of estrogen receptor signaling prevents dedifferentiation in cultured islets. Islets were either untreated or treated with an estrogen receptor selective estrogen receptor modulator (SERM; 10 nM Raloxifene). RNA-Seq analysis of cultured islets was performed following 4 days in culture. Raloxifene treatment was for one day on the final day of culture. Expression levels of individual genes were calculated by the method of RPKM (reads per kilobase per million mapped reads). Data is represented as the log of the ratio (Islets-Raloxifene: Islets-no treatment) where positive values indicate an increase in gene expression with Raloxifene treatment. […] (IL-8, CXXL6, SERPINB2, OLFM4).
Following isolation, the islet cell clusters are cultured in Connaught Medical Research Laboratory 1066 medium supplemented with 10 nM Raloxifene. These are the conditions described in the legend to FIG. 1.
An inflammatory gene expression profile is evoked following human islet isolation and culture and suppressed by Raloxifene treatment. Gene expression was assessed in isolated cultured human islets on multiple days following the isolation procedure. Islets were cultured in standard CMRL media with or without the addition of Raloxifene and gene expression profiles were assessed by RNA-Seq. In table 2A, the progressive increase of NFkB-target gene expression is observed over consecutive days in culture. Of note, significant increases in canonical NFkB targets (CCL2, CCL20, IL1B) as well as NFkB coordinately regulated gene clusters, such as the innate immunity gene cluster (APOL1-APOL6) were observed. In table 2B, Raloxifene treatment (10 nM) suppressed gene expression of the innate immunity gene cluster (APOL1-APOL6) which is typically observed to increase with the isolation and culture of human islets. Gene expression was assessed with RNA-Seq and quantification of gene transcripts is represented as RPKM ([…]). Note, three genes (APOL1, APOL2, and APOL6) in the innate immunity gene cluster were each reduced by Raloxifene treatment.

| SMILES | onset of diabetes (disease) (autoimmune diabetes) | endocrine phenotype of isolated islet cultures [1] | gene expression of the innate immunity gene cluster (APOL1-APOL6) ([1]; 10 nM Raloxifene) | % decrease in gene expression ([1]; APOL1 gene) [%] | RPKM (Ral) ([1]; APOL1 gene, 10 nM Raloxifene, control 2.1) [RPKM] | % decrease in gene expression ([1]; APOL2 gene) [%] | RPKM (Ral) ([1]; APOL2 gene, 10 nM Raloxifene, control 13.6) [RPKM] | % decrease in gene expression ([1]; APOL6 gene) [%] | RPKM (Ral) ([1]; APOL6 gene, 10 nM Raloxifene, control 1.5) [RPKM] | expression of housekeeping genes ([1]; GAPDH, ACTB, B2M, 10 nM, one day on final day of 4 days culture) | increase in expression of inflammatory genes and genes associated with a dedifferentiation profile ([1]; IL-8, CXXL6, SERPINB2, OLFM4, 10 nM, one day on final day of 4 days culture) | expression of genes associated with a differentiated phenotype ([1]; SYT8, INS, 10 nM, one day on final day of 4 days culture) |
| --- | --- | --- | --- | --- | --- | --- | --- | --- | --- | --- | --- | --- |
| CCN1C=CC=C/C1=C1/C2=NC(=C(c3cccc[n+]3CC)C3=NC(=C(c4cccc[n+]4CC)c4ccc([n-]4)C(c4cccc[n+]4CC)=C4C=CC1=N4)C=C3)C=C2.[Cl-].[Cl-].[Cl-].[Cl-].[Cl-].[Mn+3] [AEOL-10113] | significantly delayed or prevented altogether | – | – | – | – | – | – | – | – | – | – | – |
| O=C(c1ccc(OCCN2CCCCC2)cc1)c1c(-c2ccc(O)cc2)sc2cc(O)ccc12 [Raloxifene] | – | preserved the endocrine phenotype | suppressed | 15 | 1.8 | 68 | 4.3 | 41 | 0.9 | without effect | prevented | increased expression |

Reference: patent US20150361400A1, “COMPOSITIONS AND METHODS FOR MAINTAINING AND IMPROVING PANCREATIC ISLET CELL FUNCTION AND STABILITY” (WAKE FOREST UNIVERSITY HEALTH SCIENCES, priority 2013, published 2015)
